The values that follow come from patent US20170008888A1 (KYORIN PHARMACEUTICAL CO., LTD., priority 2014, published 2017).

Like-named read-outs stand apart in the source and are kept apart here.

One experiment deals with T1, AurA (Homo sapiens, UniProt O14965).
T1 construct: screened for activity against several kinases in Jurkat cells; endogenous in cells; host or cells: Jurkat cell lysate
T1 sequence (O14965 1-403): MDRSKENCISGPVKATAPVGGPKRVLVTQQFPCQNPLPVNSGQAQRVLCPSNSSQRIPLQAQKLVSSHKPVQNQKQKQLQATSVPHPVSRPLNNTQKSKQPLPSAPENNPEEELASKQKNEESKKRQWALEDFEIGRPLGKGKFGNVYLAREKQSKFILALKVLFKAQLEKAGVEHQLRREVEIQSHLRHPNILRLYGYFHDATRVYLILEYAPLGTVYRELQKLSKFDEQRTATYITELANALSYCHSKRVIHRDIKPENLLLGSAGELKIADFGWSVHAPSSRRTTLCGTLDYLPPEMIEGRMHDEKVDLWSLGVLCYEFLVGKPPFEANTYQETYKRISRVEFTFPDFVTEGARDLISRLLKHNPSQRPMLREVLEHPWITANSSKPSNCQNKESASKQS
Kind of experiment: Probe-based (AX9989) kinase profiling in Jurkat lysate: AurA. In kind it is binding. An outline of the steps: (§1)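 Gel-filtered Jurkat lysate (HEPES pH 7.5, 20 mM MnCl2, 5 mg/ml) was pre-incubated 15 min with compound at room temperature, then labelled with 5 μM acyl-phosphate ATP probe AX9989. Tryptic probe-labelled active-site peptides were streptavidin-captured and quantified by LC/MS. Percent inhibition reflected the decrease in labelled-peptide intensity versus no compound.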

In another experiment the target is T2, JAK1 (Homo sapiens, UniProt P23458).
T2 construct: screened for activity against several kinases in Jurkat cells; endogenous in cells; host or cells: Jurkat cell lysate
T2 sequence (P23458 whole entry): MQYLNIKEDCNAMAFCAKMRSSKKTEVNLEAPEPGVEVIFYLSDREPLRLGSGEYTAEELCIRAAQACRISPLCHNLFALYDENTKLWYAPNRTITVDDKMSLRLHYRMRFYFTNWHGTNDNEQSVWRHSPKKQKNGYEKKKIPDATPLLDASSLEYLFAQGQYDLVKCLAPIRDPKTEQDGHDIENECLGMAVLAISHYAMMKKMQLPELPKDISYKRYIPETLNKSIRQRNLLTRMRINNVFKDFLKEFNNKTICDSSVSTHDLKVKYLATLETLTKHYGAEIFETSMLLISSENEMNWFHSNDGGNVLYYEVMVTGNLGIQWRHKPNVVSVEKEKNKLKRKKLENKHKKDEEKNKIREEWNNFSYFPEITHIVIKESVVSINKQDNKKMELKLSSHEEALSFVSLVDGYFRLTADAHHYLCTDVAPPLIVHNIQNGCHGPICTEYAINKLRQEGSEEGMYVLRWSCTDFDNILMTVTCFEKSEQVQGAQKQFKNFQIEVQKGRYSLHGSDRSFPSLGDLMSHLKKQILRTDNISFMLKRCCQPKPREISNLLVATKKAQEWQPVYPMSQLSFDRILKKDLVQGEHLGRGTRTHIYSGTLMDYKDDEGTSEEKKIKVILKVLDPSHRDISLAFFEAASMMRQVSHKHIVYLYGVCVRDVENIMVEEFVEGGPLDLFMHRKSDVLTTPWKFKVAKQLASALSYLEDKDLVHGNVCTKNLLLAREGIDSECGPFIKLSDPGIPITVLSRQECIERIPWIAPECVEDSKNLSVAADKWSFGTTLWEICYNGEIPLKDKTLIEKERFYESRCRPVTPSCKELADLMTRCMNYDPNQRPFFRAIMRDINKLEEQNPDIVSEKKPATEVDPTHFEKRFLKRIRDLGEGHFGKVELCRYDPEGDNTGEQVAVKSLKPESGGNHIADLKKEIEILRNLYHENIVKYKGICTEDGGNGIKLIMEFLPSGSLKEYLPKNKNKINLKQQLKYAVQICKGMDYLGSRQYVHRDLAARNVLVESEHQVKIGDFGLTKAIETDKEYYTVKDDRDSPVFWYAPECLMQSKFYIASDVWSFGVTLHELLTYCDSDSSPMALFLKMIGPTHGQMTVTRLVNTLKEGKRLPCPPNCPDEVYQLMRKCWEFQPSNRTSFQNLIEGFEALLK
Kind of experiment: Probe-based (AX9989) kinase profiling in Jurkat lysate: JAK1. In kind it is binding. An outline of the steps:
as §1

For the next experiment, the system named is human PBMCs. In words: Human PBMC TNF-α response to endotoxin (ELISA). In kind it is cell-based. Particulars: 0.1 μg/ml LPS 16 h, read-out: EC50 for the inhibition of the human PBMC TNF-α response to endotoxin, ave. ± S.D. The protocol: Human PBMCs (Astarte Biologics, Redmond, Wash.) were seeded at 2e6 cells/ml in RPMI 1640 containing 10% (v/v) charcoal-dextran treated, heat inactivated FBS (Omega Scientific, Tarzana, Calif.), 0.05 mM 2-Mercaptoethanol (Sigma-Aldrich, St. Louis, Mo.), and 1×Pen/Strep Amphotericin B (Lonza, Allendale, N.J.). Cells were pre-treated with test compounds (10 μM down by ⅕ in a 4-point serial dilution series) for 1 h at 37° C. in a humidified atmosphere at 5% CO2. Cells were then stimulated with 0.1 μg/ml lipopolysaccharide (LPS) from E. coli 0111:B4 (EMD Millipore, Billerica, Mass.) for 16 h at 37° C. in a humidified atmosphere at 5% CO2. Supernatant was collected and a 25-fold dilution was analyzed for TNF-α concentration using an ELISA kit from Life Technologies (Grand Island, N.Y.) according to the manufacturer's instructions. Absorbance at 450 nm was read using the Synergy 2 multi-detection microplate reader (BioTek Instruments, Winooski, Vt.).

For the next experiment, the target named is T3, ERK5 (Homo sapiens, UniProt Q13164).
T3 construct: screened for activity against several kinases in Jurkat cells; endogenous in cells; host or cells: Jurkat cell lysate
T3 sequence (Q13164 whole entry): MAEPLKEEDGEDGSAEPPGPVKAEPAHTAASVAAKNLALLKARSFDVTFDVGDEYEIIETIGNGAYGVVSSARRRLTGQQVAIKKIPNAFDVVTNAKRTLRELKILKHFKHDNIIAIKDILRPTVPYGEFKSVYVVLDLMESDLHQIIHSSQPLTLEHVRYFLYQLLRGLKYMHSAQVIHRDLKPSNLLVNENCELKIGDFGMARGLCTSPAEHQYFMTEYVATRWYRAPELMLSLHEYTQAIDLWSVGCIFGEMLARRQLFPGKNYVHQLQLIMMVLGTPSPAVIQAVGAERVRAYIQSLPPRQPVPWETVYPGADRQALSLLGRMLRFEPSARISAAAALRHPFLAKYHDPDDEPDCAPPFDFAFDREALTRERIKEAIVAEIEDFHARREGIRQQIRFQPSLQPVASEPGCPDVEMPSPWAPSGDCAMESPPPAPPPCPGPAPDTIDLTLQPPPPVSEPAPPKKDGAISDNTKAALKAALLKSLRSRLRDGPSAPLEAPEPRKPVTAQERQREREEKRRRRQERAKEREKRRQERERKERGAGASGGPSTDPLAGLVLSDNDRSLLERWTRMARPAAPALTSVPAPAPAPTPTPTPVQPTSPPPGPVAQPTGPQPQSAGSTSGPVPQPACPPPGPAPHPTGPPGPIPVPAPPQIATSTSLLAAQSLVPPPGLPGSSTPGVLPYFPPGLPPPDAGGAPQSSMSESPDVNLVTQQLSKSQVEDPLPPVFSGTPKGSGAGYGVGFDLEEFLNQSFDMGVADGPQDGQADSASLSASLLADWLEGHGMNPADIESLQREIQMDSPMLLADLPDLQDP
In words: Probe-based (AX9989 acyl phosphate ATP probe) kinase profiling in Jurkat lysate: ERK5. The following applies: for IC50: Jurkat lysate. The format is binding. An outline of the steps:
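Gel-filtered Jurkat lysate (5 mg/ml, 20 mM MnCl2) preincubated 15 min at room temperature with compound, then labelled with 5 μM AX9989 acyl phosphate ATP probe. Probe-labelled ERK5 active-site peptides quantified by LC/MS after trypsin digestion and streptavidin capture; IC50 calculated from percent inhibition at the screening concentration.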

The target of another experiment is T4, TAO2 (Homo sapiens, UniProt Q9UL54).
T4 construct: screened for activity against several kinases in Jurkat cells; endogenous in cells; host or cells: Jurkat cell lysate
T4 sequence (Q9UL54 1-1235): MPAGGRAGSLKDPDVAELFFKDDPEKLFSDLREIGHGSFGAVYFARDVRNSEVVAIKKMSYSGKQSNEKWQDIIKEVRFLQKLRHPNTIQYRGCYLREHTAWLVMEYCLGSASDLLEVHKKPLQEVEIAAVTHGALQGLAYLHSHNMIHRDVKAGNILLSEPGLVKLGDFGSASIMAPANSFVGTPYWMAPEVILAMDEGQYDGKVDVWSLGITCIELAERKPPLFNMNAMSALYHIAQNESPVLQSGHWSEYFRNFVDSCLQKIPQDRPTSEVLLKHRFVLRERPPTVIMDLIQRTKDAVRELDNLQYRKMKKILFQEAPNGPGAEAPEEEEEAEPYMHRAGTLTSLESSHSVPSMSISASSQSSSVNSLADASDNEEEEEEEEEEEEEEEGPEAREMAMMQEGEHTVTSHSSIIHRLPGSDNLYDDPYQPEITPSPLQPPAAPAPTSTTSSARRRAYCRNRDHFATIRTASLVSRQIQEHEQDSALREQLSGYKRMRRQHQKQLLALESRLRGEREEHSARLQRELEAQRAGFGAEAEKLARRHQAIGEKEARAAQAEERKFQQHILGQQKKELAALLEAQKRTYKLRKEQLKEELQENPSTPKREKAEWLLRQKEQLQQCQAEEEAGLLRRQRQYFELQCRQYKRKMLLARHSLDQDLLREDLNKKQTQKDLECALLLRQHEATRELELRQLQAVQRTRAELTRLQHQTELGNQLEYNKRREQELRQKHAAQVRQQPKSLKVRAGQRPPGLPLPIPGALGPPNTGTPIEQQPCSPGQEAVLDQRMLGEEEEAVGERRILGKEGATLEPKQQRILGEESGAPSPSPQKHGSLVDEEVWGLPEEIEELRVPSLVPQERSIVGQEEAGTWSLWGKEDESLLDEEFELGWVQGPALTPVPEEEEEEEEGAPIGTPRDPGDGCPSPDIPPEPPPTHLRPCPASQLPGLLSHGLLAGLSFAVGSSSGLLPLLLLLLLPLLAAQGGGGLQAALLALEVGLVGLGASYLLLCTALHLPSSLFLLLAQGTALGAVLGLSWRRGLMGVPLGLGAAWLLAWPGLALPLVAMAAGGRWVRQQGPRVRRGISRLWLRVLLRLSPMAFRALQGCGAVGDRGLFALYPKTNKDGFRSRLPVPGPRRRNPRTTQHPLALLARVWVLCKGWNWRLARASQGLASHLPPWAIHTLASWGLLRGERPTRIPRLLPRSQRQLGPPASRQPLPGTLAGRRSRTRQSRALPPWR
In words: Probe-based (AX9989) kinase profiling in Jurkat lysate: TAO2. The format is binding. The gist of the method:
as §1

Another experiment relates to AMPKa1 or AMPKa2. In words: Probe-based (AX9989) kinase profiling in Jurkat lysate: AMPKa1 or AMPKa2. In kind it is binding. The gist of the method: as §1
The test system of a further experiment is ABL or ARG. In words: Probe-based (AX9989) kinase profiling in Jurkat lysate: ABL or ARG. In kind it is binding. The gist of the method: as §1
A further experiment deals with T5, ACK (Homo sapiens, UniProt Q07912).
T5 construct: screened for activity against several kinases in Jurkat cells; endogenous in cells; host or cells: Jurkat cell lysate
T5 sequence (Q07912 whole entry): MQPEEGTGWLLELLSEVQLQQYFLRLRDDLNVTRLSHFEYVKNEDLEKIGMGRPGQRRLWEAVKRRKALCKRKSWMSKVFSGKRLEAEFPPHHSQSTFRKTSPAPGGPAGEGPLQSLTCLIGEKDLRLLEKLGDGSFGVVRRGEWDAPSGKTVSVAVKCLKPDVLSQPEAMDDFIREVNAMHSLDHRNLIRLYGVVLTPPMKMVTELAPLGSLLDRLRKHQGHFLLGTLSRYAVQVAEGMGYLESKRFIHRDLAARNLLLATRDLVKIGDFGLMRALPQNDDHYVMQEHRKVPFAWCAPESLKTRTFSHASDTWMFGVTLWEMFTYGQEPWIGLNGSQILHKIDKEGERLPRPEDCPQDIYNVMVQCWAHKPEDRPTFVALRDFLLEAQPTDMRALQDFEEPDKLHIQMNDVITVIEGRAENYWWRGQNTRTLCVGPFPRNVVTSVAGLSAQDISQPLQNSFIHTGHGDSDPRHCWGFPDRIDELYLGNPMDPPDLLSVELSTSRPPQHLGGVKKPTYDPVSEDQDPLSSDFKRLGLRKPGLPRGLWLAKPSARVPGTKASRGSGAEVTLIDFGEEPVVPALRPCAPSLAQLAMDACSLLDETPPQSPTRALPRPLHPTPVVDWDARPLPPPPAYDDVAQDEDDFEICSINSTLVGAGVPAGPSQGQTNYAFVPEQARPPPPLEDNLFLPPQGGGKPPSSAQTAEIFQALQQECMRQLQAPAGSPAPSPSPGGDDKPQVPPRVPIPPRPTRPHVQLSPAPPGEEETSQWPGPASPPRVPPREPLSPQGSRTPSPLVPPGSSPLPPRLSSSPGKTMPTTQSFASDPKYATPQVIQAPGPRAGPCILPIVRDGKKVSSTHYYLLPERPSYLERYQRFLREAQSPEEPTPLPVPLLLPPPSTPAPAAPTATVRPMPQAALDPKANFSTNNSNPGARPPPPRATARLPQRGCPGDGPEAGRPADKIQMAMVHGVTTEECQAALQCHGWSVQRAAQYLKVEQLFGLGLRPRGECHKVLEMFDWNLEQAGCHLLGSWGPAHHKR
In words: Probe-based (AX9989) kinase profiling in Jurkat lysate: ACK. The format is binding. An outline of the steps:
as §1

The subject of another experiment is AurB or AurC. Kind of experiment: Probe-based (AX9989) kinase profiling in Jurkat lysate: AurB or AurC. In kind it is binding. An outline of the steps: as §1
[1] abbreviates: calculated from percent inhibition and screening concentration, AX9989 probe.

One may read the EC50 as the concentration giving half of the maximal effect. As usually defined, the IC50 is the concentration needed to halve the response being measured.

As for `CCOc1cc(C(=O)NCCN2CCOCC2)ccc1Nc1cc2c(cn1)N(C)C(=O)c1ccccc1N2C` [Compound 5], the inhibition at 1 µM on AurA (screening concentration 1.0 μM, read-out: Kinase inhibition % at indicated screening concentration: AurA) is no more than 35%; at JAK1 (screening concentration 1.0 μM, read-out: Kinase inhibition % at indicated screening concentration: JAK1), no more than 35%; at ERK5 (screening concentration 1.0 μM, read-out: Kinase inhibition % at indicated screening concentration: ERK5), 50 to 75%; at TAO2 (screening concentration 1.0 μM, read-out: Kinase inhibition % at indicated screening concentration: TAO2) it was no more than 35%; at ACK (screening concentration 1.0 μM, read-out: Kinase inhibition % at indicated screening concentration: ACK), no more than 35%. The EC50 in the experiment with human PBMCs stood at 1.75 µM. Further, the IC50 on ERK5 (calculated from percent inhibition of AX9989 labeling and the screening concentration) was 0.101 to 0.5 µM. The “Kinase inhibition % at indicated screening concentration: AMPKa1 or AMPKa2” value in the experiment with AMPKa1 or AMPKa2 (screening concentration 1.0 μM) was “E (E is ≦35%)”. Also, the “Kinase inhibition % at indicated screening concentration: ABL or ARG” value in the experiment on ABL or ARG (screening concentration 1.0 μM) is reported as “D (D is >35% to ≦50%)”. In addition, the “Kinase inhibition % at indicated screening concentration: AurB or AurC” value with AurB or AurC (screening concentration 1.0 μM) is on record as “E (E is ≦35%)”.

With `CCOc1cc(C(=O)N2CC[C@@H](N(C)C)C2)ccc1Nc1cc2c(cn1)N(C)S(=O)(=O)c1ccccc1N2C` [Compound T3], the inhibition at 10 µM at AurA (screening concentration 10 μM, read-out: AurA Inhibition % at indicated screening concentration) is no more than 35%; on JAK1 (screening concentration 10 μM, read-out: JAK1 Inhibition % at indicated screening concentration) it was no more than 35%; at ERK5 (screening concentration 10 μM, read-out: ERK5 Inhibition % at indicated screening concentration), no more than 35%; on TAO2 (screening concentration 10 μM, read-out: TAO2 Inhibition % at indicated screening concentration), no more than 35%; on ACK (screening concentration 10 μM, read-out: ACK Inhibition % at indicated screening concentration) it was no more than 35%. Besides, the IC50 at ERK5 (setting [1]) was greater than 0.5 µM. Further, the “AMPKa1 or AMPKa2 Inhibition % at indicated screening concentration” value in the experiment on AMPKa1 or AMPKa2 (screening concentration 10 μM) is reported as “E (E is ≦35%)”. Further, in the experiment with ABL or ARG (screening concentration 10 μM), the “ABL or ARG Inhibition % at indicated screening concentration” value is given as “E (E is ≦35%)”. The “AurB or AurC Inhibition % at indicated screening concentration” value in the experiment on AurB or AurC (screening concentration 10 μM) is recorded as “E (E is ≦35%)”.

In the case of `CCOc1cc(C(=O)N2CCOCC2)ccc1Nc1cc2c(cn1)N(C)C(=O)c1ccccc1S2` [Compound T82, 3-((2-ethoxy-4-(morpholine-4-carbonyl)phenyl)amino)-11-methylbenzo[f]pyrido[4,3-b][1,4]thiazepin-10(11H)-one], the inhibition at 1 µM at AurA (screening concentration 1 μM, read-out: AurA Inhibition % at indicated screening concentration) was no more than 35%; on JAK1 (screening concentration 1 μM, read-out: JAK1 Inhibition % at indicated screening concentration) it was no more than 35%; on ERK5 (screening concentration 1 μM, read-out: ERK5 Inhibition % at indicated screening concentration), 50 to 75%; on TAO2 (screening concentration 1 μM, read-out: TAO2 Inhibition % at indicated screening concentration), no more than 35%; at ACK (screening concentration 1 μM, read-out: ACK Inhibition % at indicated screening concentration), no more than 35%. On ERK5 (setting [1]), the IC50 was 0.101 to 0.5 µM. Also, the “AMPKa1 or AMPKa2 Inhibition % at indicated screening concentration” value in the experiment with AMPKa1 or AMPKa2 (screening concentration 1 μM) is reported as “E (E is ≦35%)”. In addition, the “ABL or ARG Inhibition % at indicated screening concentration” value in the experiment with ABL or ARG (screening concentration 1 μM) was “E (E is ≦35%)”. In the experiment on AurB or AurC (screening concentration 1 μM), the “AurB or AurC Inhibition % at indicated screening concentration” value is “E (E is ≦35%)”.
